Key:
Format in all cases: cell-based
TK-10 = assay: NCI panel growth inhibition, TK-10; conditions: Homo sapiens, Renal
Excerpt: (§1) Compound I has also been tested in a battery of tumor cell assays known as the NCI panel.

HOP-62 = assay: NCI panel growth inhibition, HOP-62; conditions: Homo sapiens, Non-Small Cell Lung Cancer
Excerpt: as §1

NCI-H522 = assay: NCI panel growth inhibition, NCI-H522; conditions: Homo sapiens, Non-Small Cell Lung Cancer
Excerpt: as §1

T-47D = assay: NCI panel growth inhibition, T-47D; conditions: Homo sapiens, T47D, Breast Cancer
Excerpt: as §1

CAKI-1 = assay: NCI panel growth inhibition, CAKI-1; conditions: Homo sapiens, Renal
Excerpt: as §1

SK-MEL-2 = assay: NCI panel growth inhibition, SK-MEL-2; conditions: Homo sapiens, Melanoma
Excerpt: as §1

HOP-92 = assay: NCI panel growth inhibition, HOP-92; conditions: Homo sapiens, Non-Small Cell Lung Cancer
Excerpt: as §1

EKVX = assay: NCI panel growth inhibition, EKVX; conditions: Homo sapiens, Non-Small Cell Lung Cancer
Excerpt: as §1

NCI-H322M = assay: NCI panel growth inhibition, NCI-H322M; conditions: Homo sapiens, Non-Small Cell Lung Cancer
Excerpt: as §1

IGROV1 = assay: NCI panel growth inhibition, IGROV1; conditions: Homo sapiens, IGROV-1, Ovarian
Excerpt: as §1

SF-268 = assay: NCI panel growth inhibition, SF-268; conditions: Homo sapiens, CNS Cancer
Excerpt: as §1

M14 = assay: NCI panel growth inhibition, M14; conditions: Homo sapiens, Melanoma
Excerpt: as §1

SW-620 = assay: NCI panel growth inhibition, SW-620; conditions: Homo sapiens, Colon Cancer
Excerpt: as §1

UO-31 = assay: NCI panel growth inhibition, UO-31; conditions: Homo sapiens, Renal
Excerpt: as §1

UACC-257 = assay: NCI panel growth inhibition, UACC-257; conditions: Homo sapiens, Melanoma
Excerpt: as §1

HCC-2998 = assay: NCI panel growth inhibition, HCC-2998; conditions: Homo sapiens, Colon Cancer
Excerpt: as §1

MDA-MB-231 = assay: NCI panel growth inhibition, MDA-MB-231; conditions: Homo sapiens, Breast Cancer
Excerpt: as §1

A549 = assay: NCI panel growth inhibition, A549; conditions: Homo sapiens, Non-Small Cell Lung Cancer
Excerpt: as §1

MDA-MB-435 = assay: NCI panel growth inhibition, MDA-MB-435; conditions: Homo sapiens, Breast Cancer
Excerpt: as §1

HCT-15 = assay: NCI panel growth inhibition, HCT-15; conditions: Homo sapiens, Colon Cancer
Excerpt: as §1

MCF7 = assay: NCI panel growth inhibition, MCF7; conditions: Homo sapiens, Breast Cancer
Excerpt: as §1

OVCAR-4 = assay: NCI panel growth inhibition, OVCAR-4; conditions: Homo sapiens, Ovarian
Excerpt: as §1

HCT-116 = assay: NCI panel growth inhibition, HCT-116; conditions: Homo sapiens, Colon Cancer
Excerpt: as §1

OVCAR-5 = assay: NCI panel growth inhibition, OVCAR-5; conditions: Homo sapiens, Ovarian
Excerpt: as §1

SF-295 = assay: NCI panel growth inhibition, SF-295; conditions: Homo sapiens, CNS Cancer
Excerpt: as §1

U251 = assay: NCI panel growth inhibition, U251; conditions: Homo sapiens, U-251, CNS Cancer
Excerpt: as §1

PC-3 = assay: NCI panel growth inhibition, PC-3; conditions: Homo sapiens, Prostate
Excerpt: as §1

NCI-H23 = assay: NCI panel growth inhibition, NCI-H23; conditions: Homo sapiens, Non-Small Cell Lung Cancer
Excerpt: as §1

SNB-19 = assay: NCI panel growth inhibition, SNB-19; conditions: Homo sapiens, CNS Cancer
Excerpt: as §1

ACHN = assay: NCI panel growth inhibition, ACHN; conditions: Homo sapiens, Renal
Excerpt: as §1

[1] = tested on: NCI panel cancer cell lines; assay: NCI panel of tumor cell assays, summary over cell lines; conditions: all NCI panel cell lines
Excerpt: Compound I has also been tested in a battery of tumor cell assays known as the NCI panel. […] Using this measure, 1.8% of cell lines were particularly sensitive to Compound B at this level, while 39% were particularly sensitive to Compound I at the same concentration. […] Loss of PTEN activity often occurs in cancers, and enhances the sensitivity of a tumor to PI3K inhibitors. […] The following Table summarizes the cell lines found to be sensitive to Compound I and the known mutations in those cell lines.

SN12C = assay: NCI panel growth inhibition, SN12C; conditions: Homo sapiens, Renal
Excerpt: as §1

NCI-H460 = assay: NCI panel growth inhibition, NCI-H460; conditions: Homo sapiens, Non-Small Cell Lung Cancer
Excerpt: as §1

SNB-75 = assay: NCI panel growth inhibition, SNB-75; conditions: Homo sapiens, CNS Cancer
Excerpt: as §1

KM12 = assay: NCI panel growth inhibition, KM12; conditions: Homo sapiens, Colon Cancer
Excerpt: as §1

OVCAR-3 = assay: NCI panel growth inhibition, OVCAR-3; conditions: Homo sapiens, Ovarian
Excerpt: as §1

A498 = assay: NCI panel growth inhibition, A498; conditions: Homo sapiens, Renal
Excerpt: as §1

RXF 393 = assay: NCI panel growth inhibition, RXF 393; conditions: Homo sapiens, Renal
Excerpt: as §1

NCI-H226 = assay: NCI panel growth inhibition, NCI-H226; conditions: Homo sapiens, Non-Small Cell Lung Cancer
Excerpt: as §1

OVCAR-8 = assay: NCI panel growth inhibition, OVCAR-8; conditions: Homo sapiens, Ovarian
Excerpt: as §1

UACC-62 = assay: NCI panel growth inhibition, UACC-62; conditions: Homo sapiens, Melanoma
Excerpt: as §1

MDA-MB-468 = assay: NCI panel growth inhibition, MDA-MB-468; conditions: Homo sapiens, Breast Cancer
Excerpt: as §1

SF-539 = assay: NCI panel growth inhibition, SF-539; conditions: Homo sapiens, CNS Cancer
Excerpt: as §1

ADR-RES = assay: NCI panel growth inhibition, ADR-RES; conditions: Breast Cancer
Excerpt: as §1

786-0 = assay: NCI panel growth inhibition, 786-0; conditions: Homo sapiens, Renal
Excerpt: as §1

DU-145 = assay: NCI panel growth inhibition, DU-145; conditions: Homo sapiens, Prostate
Excerpt: as §1

SK-MEL-5 = assay: NCI panel growth inhibition, SK-MEL-5; conditions: Homo sapiens, Melanoma
Excerpt: as §1

MALME-3M = assay: NCI panel growth inhibition, MALME-3M; conditions: Homo sapiens, Melanoma
Excerpt: as §1

COLO 205 = assay: NCI panel growth inhibition, COLO 205; conditions: Homo sapiens, Colon Cancer
Excerpt: as §1

HT29 = assay: NCI panel growth inhibition, HT29; conditions: Homo sapiens, HT-29, Colon Cancer
Excerpt: as §1

LOX IMVI = assay: NCI panel growth inhibition, LOX IMVI; conditions: Homo sapiens, Melanoma
Excerpt: as §1

HS 578T = assay: NCI panel growth inhibition, HS 578T; conditions: Homo sapiens, Breast Cancer
Excerpt: as §1

SK-MEL-28 = assay: NCI panel growth inhibition, SK-MEL-28; conditions: Homo sapiens, Melanoma
Excerpt: as §1

SK-OV-3 = assay: NCI panel growth inhibition, SK-OV-3; conditions: Homo sapiens, Ovarian
Excerpt: as §1

BT-549 = assay: NCI panel growth inhibition, BT-549; conditions: Homo sapiens, Breast Cancer
Excerpt: as §1

SMILES: CC[C@H](Nc1ncnc2[nH]cnc12)c1nc2cccc(F)c2c(=O)n1-c1ccccc1 [Compound B, reference compound]
- GI50 (TK-10): 31.7 µM
- GI50 (HOP-62): 39.7 µM
- GI50 (NCI-H522): 52.7 µM
- GI50 (T-47D): 3.18 µM
- GI50 (CAKI-1): 13.4 µM
- GI50 (SK-MEL-2): 100 µM
- GI50 (HOP-92): 34.8 µM
- GI50 (EKVX): 28.2 µM
- GI50 (NCI-H322M): 32.2 µM
- GI50 (IGROV1): 3.54 µM
- GI50 (SF-268): 29.8 µM
- GI50 (M14): 58.4 µM
- GI50 (SW-620): 86.4 µM
- GI50 (UO-31): 5.32 µM
- GI50 (UACC-257): 33.5 µM
- GI50 (HCC-2998): 53.3 µM
- GI50 (MDA-MB-231): 100 µM
- GI50 (A549): 50.4 µM
- GI50 (MDA-MB-435): 16.4 µM
- GI50 (HCT-15): 48.4 µM
- GI50 (MCF7): 7.08 µM
- GI50 (OVCAR-4): 100 µM
- GI50 (HCT-116): 54.3 µM
- GI50 (OVCAR-5): 40.1 µM
- GI50 (SF-295): 8.18 µM
- GI50 (U251): 70.4 µM
- GI50 (PC-3): 12 µM
- GI50 (NCI-H23): 100 µM
- GI50 (SNB-19): 54.8 µM
- GI50 (ACHN): 24.4 µM
- Cell lines particularly sensitive (GI50 of 2 micromolar or less) [1]: 1.8%
- GI50 (SN12C): 11 µM
- GI50 (NCI-H460): 34.7 µM
- GI50 (SNB-75): 2.96 µM
- GI50 (KM12): 54.1 µM
- GI50 (OVCAR-3): 15.5 µM
- GI50 (A498): 2.38 µM
- GI50 (RXF 393): 74.2 µM
- GI50 (NCI-H226): 100 µM
- GI50 (OVCAR-8): 96 µM
- GI50 (UACC-62): 4.2 µM
- GI50 (MDA-MB-468): 13.6 µM
- GI50 (SF-539): 28.6 µM
- GI50 (ADR-RES): 77.9 µM
- GI50 (786-0): 5.48 µM
- GI50 (DU-145): 43.8 µM
- GI50 (SK-MEL-5): 32.9 µM
- GI50 (MALME-3M): 31.6 µM
- GI50 (COLO 205): 30.1 µM
- GI50 (HT29): 39.1 µM
- GI50 (LOX IMVI): 31.1 µM
- GI50 (HS 578T): 6.91 µM
- GI50 (SK-MEL-28): 38.6 µM
- GI50 (SK-OV-3): 13.8 µM
- GI50 (BT-549): 14.3 µM
